Reference: PubChem BioAssay AID179 (DTP/NCI, 2004)
Activity calls are given as the source filed them.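 Rule for the calls: active = compounds giving half or more protection of infected cells from virus-caused growth loss, again on retest; inactive = the rest.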

Tested on: CEM cells HIV-1 protection, formazan growth assay
Assay: NCI AIDS Antiviral Assay
Settings: for IC50: measured here: growth of uninfected CEM cells
In short: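 Category rules: moderately active means at least 50% protection on retest, and confirmed active means 100% protection reproducibly. The underlying data came from a formazan growth assay in HIV-1-infected CEM cells.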

SMILES | EC50 [µM] | IC50 [µM] | outcome
O=[N+]([O-])c1ncnc2c1ncn2C1OC(CO)CC1F (configuration not stated) | > 89.1 | 28.2 | 
CC(C)c1cc(=O)[nH]c2cc(N)ccc12 | > 200 | > 200 | 
CC(C)(C)c1cc2c(O)c(c1)COCc1cc(C(C)(C)C)cc(c1O)COCc1cc(C(C)(C)C)cc(c1O)COC2 | > 200 | 145 | 
CC(=Nc1ccccc1S)c1c(O)ccc2c(C)cc(=O)oc12 | > 11.5 | > 11.5 | 
CC(=O)OCC1OC(N2C(=O)[C@@H](Oc3ccccc3)[C@H]2c2ccccc2)C(OC(C)=O)C(OC(C)=O)C1OC(C)=O (some centres not stated) | > 200 | 174 | 
Nc1ncnc2c1ncn2C1OC(CSCC(F)(F)F)C(O)C1O (configuration not stated) | > 692 | 245 | 
O=C(Nc1nc(C23CC4CC(CC(C4)C2)C3)cs1)c1cc2cc([N+](=O)[O-])ccc2oc1=O | > 200 | 178 | 
COc1cc(/C=C2\N=C(C)N(n3c(-c4ccccc4)nc4ccccc4c3=O)C2=O)cc(OC)c1OC | > 200 | 38.9 | 
CC(=O)OC1CCC2OOC1O2 (configuration not stated) |  |  | inactive
c1ccc(C2(c3ccccc3)S/C(=C3/SC(c4ccccc4)(c4ccccc4)c4ccccc43)c3ccccc32)cc1 |  |  | inactive
NCC(=O)NC1OC(COP(=O)(O)O)C(O)C1O (configuration not stated) | > 200 | > 200 | 
CCOC(=O)/C(C#N)=c1/s/c(=C(\O)N/N=C/c2ccc(OC)cc2)c(=N)n1-c1ccccc1 | > 4.27 | > 4.27 | 
CC1=CC2=C(C(N)=O)C(=O)OC2(C)C(c2ccccc2)C1 (configuration not stated) | > 200 | > 200 | 
COC(=O)C1=C(C(=O)OC)C2(C)OC1C(=O)C21CC1 (configuration not stated) |  |  | inactive
Nc1nc(N)c2nnsc2n1 | > 200 | > 200 | 
O=C1CN(S(=O)(=O)c2ccc([N+](=O)[O-])cc2)CC(=O)CN(S(=O)(=O)c2ccc([N+](=O)[O-])cc2)CC(=O)CN(S(=O)(=O)c2ccc([N+](=O)[O-])cc2)C1 | > 200 | > 200 | 
CCOC(=O)C1=C(C)NC(c2ccco2)=C(C#N)C1c1cccc([N+](=O)[O-])c1 (configuration not stated) | > 0.2 | 0.0832 | 
CCOC(=O)C[N+]1(C)C2CCC1CC(O)C2 (configuration not stated) | > 200 | > 200 | 
O=C(CC(C(=O)c1ccsc1)c1ccccc1)c1ccccc1 (configuration not stated) | > 200 | 174 | 
CCN(CC)CCn1c(=O)c2cccnc2n2c3c(=O)n(C)c(=O)n(C)c3nc12 | > 129 | 60.3 | 
CC(=O)OC1CSS(=O)CC1OC(C)=O (configuration not stated) | > 513 | 22.9 | 
CC[C@@H](C)C(=O)O[C@H]1[C@H](O)[C@H]2[C@@H](CN3C[C@@H](C)CC[C@H]3[C@@]2(C)O)[C@@H]2CC34O[C@]5(O)[C@@H](OC(=O)[C@@](C)(O)CC)CC[C@@]3(C)[C@@H]5[C@@H](OC(C)=O)[C@@H](OC(C)=O)[C@H]4[C@@]21O | > 200 | > 200 | 

SMILES | EC50 [µM] | IC50 [µM] | outcome
CC1=CC2=C(C#N)C(=O)OC2(C)C(c2ccccc2)C1 (configuration not stated) | > 200 | 117 | 
COC(=O)[C@H](Cc1ccccc1)NP(=O)(OC)OCC1OC(n2cc(C)c(=O)[nH]c2=O)CC1N=[N+]=[N-] (some centres not stated) | 83.2 | > 200 | 
CC(C)N1CCOC12CCCC2 | > 200 | 29.5 | 
O=C(O)Cc1cc(=O)oc2c1ccc1ccccc12 | > 200 | 135 | 
COc1ccc(CN2COc3c(cc(C)c4cccnc34)C2)cc1 | > 200 | 1.02 | 
CC(C)(C)[Si](C)(C)OCC1OC(n2ccc(=O)[nH]c2=O)C(O[Si](C)(C)C(C)(C)C)C1(O)C/C=N/O (configuration not stated) | > 200 | 7.59 | 
CCOP(C)(=O)/C(Cc1ccc(OC)c(OC)c1)=N\O (configuration not stated) | > 200 | > 200 | 
COc1ccc(Cc2cnc(N)nc2N)cc1OC |  |  | inactive
CN1CCCN(C)CCCN(C)CCCN(C)CCC1 | > 100 | > 100 | 
COc1ccc(N=Nc2c(-c3ccccc3)nn(C(=O)CC(=O)Nc3ccc(OC)cc3)c2-c2ccccc2)cc1 | > 25.1 | > 25.1 | 
COc1ccc2c(c1)OC[C@@H]1c3cc(O)c(OCc4ccccc4)cc3O[C@H]21 | 9.12 | 24 | 
CCOC(=O)/C(=C\c1cc(OC)ccc1OC)P(=O)(OCC)OCC | > 676 | 9.77 | 
CCCCCCCCCCCCCCCc1nc(SCC(=O)O)n[nH]1 | > 3.89 | > 3.89 | 
O=P1(NCCCl)OCCCN1CCCl (configuration not stated) | > 955 | > 955 | 
CC(=O)Oc1c2c(cc3c1C(=O)NC1C3=CC(OC(C)=O)[C@@H](OC(C)=O)[C@H]1OC(C)=O)OCO2 (some centres not stated) |  |  | inactive
CCOC(=O)c1sc(SC)nc1NC(=O)c1ccccc1 | > 200 | > 200 | 
COC(=O)CN(CC(=O)NCCNC(=O)OC(C)(C)C)C1CCCCC1N(CC(=O)OC)CC(=O)OC (configuration not stated) | > 200 | > 200 | 
Clc1ccccc1CSc1ccc2nncc(SCc3ccccc3Cl)c2c1 | > 34.7 | > 34.7 | 
CC1(C)OCC(C2OC(OC(=O)c3ccc([N+](=O)[O-])cc3)C3OC(C)(C)OC23)O1 (configuration not stated) |  |  | inactive
CC1(c2cccc(C3CCC4(C=CC3=O)OCCO4)c2)OCCO1 (configuration not stated) | > 200 | 1.91 | 
CSc1nc(C)c2c(n1)N(c1ccc(Cl)cc1)CC2 | > 200 | > 200 | 
CCCNC(=O)c1nc(SC)sc1NC(=O)c1ccc([N+](=O)[O-])cc1 | > 200 | 191 | 

SMILES | EC50 [µM] | IC50 [µM] | outcome
CN(C)c1ccc(C(=C2C=CC(=[N+](C)C)C=C2)c2ccc(N(C)C)cc2)cc1 |  |  | inactive
CC(=O)c1c(C)nc(SSc2nc(C)c(C(C)=O)c(-c3ccc(Cl)cc3)c2C#N)c(C#N)c1-c1ccc(Cl)cc1 | > 200 | > 200 | 
O=C(NC(N1CCN(c2cc3c(cc2F)c(=O)c(C(=O)O)cn3C2CC2)CC1)(C(F)(F)F)C(F)(F)F)c1ccccc1 | > 200 | 105 | 
O=C1C[C@@H](Sc2ccccc2)C2(OCCO2)C2ON3CCCC[C@H]3[C@H]12 (some centres not stated) | > 200 | 1.82 | 
CN(C)C(=S)/N=c1\ssc(=Nc2ccccc2)n1C |  |  | inactive
O=C(c1ccccc1)C(C(=O)c1ccccc1)C1(O)C(=O)c2ccccc2C1=O |  |  | inactive
O=C(O)CNS(=O)(=O)c1ccc(NC(=O)c2cccc([N+](=O)[O-])c2)cc1 |  |  | inactive
COc1ccccc1N/N=c1\c2nc3ccccc3nc1n(-c1ccccc1C)c(=S)n2-c1ccccn1 | > 200 | > 100 | 
O=[N+]([O-])c1ccc(C2N3CCCCC3[C@H]3CCCCN23)cc1 (some centres not stated) | > 24 | > 24 | 
CC(=O)NC1C(O)OC(CO)C(OC2OC(CO)C(O)C(O)C2NC(=O)NCCCCCCNC(=O)n2cc(F)c(=O)[nH]c2=O)C1O (configuration not stated) |  |  | inactive
CC1(C)NC(=O)[C@]2(C[C@@H](O)C=C2CO)O1 | > 200 | > 200 | 
CC1(C)O[C@H]2OC3CCC(=O)CC3(O)[C@H]2O1 (some centres not stated) |  |  | inactive
CC1(C)C(N2CCOCC2)CS1(=O)=O (configuration not stated) | > 200 | > 200 | 
Nc1nc(Cl)c(CO)c(NCC2(CO)CC(CCc3ccccc3)C2)n1 (configuration not stated) | > 20 | 0.129 | 
c1ccc(-c2onc3c2CCCC3)cc1 |  |  | inactive
CCC(=O)C(C(C)/C=C/CCSc1ccccc1)C(O)CCCCCC(=O)OC (configuration not stated) | > 200 | 36.3 | 
COc1ccc2c(-c3ccc(OCCN(C)C)cc3)c(Oc3ccc(Cl)cc3)c(=O)oc2c1 | > 200 | 5.89 | 
CC1(C)CC2C=C(C=O)C3(C=O)CC3(C)C2C1 (configuration not stated) | > 3.47 | 0.501 | 
COc1ccc(/C=C/COC(C)=O)cc1OC |  |  | inactive
CCC12C=CCN(C1)C(=O)Cc1c([nH]c3ccccc13)/C(=N/NC(=O)OC)C2 (configuration not stated) | > 52.5 | > 52.5 | 
Cn1c(C2CC(C)(C)c3c2c2ccccc2n3C)cc2ccccc21 (configuration not stated) | > 21.9 | > 21.9 | 
O=C(O)/C(Cl)=C(\Cl)C(=O)Nc1ccc(Cl)cc1Cl |  |  | inactive

SMILES | EC50 [µM] | IC50 [µM] | outcome
CC(=O)NNc1nc(C)c(C(/C=C/c2ccccc2O)=N/NC(=O)c2ccncc2)s1 | > 22.4 | > 22.4 | 
O=C(O)C1CC2C3C=CC(C3)C2C1 (configuration not stated) (tested in a mixture with another compound) | > 64.6 | 45.7 | 
O=c1[nH]nnc2c1sc1ncccc12 | > 200 | > 200 | 
CCc1cc2c(oc3c4ccccc4ccc23)c(=O)[nH]1 | > 200 | > 200 | 
COC(=O)CCCc1ccc2c(c1)CCC2 | > 200 | > 200 | 
NC(CCC(=O)NC(CS)C(=O)NCC(=O)O)C(=O)O (configuration not stated) | > 288 | > 288 | 
O=C(O)c1sc(=S)sc1C(=O)O |  |  | inactive
CC(=O)NC(CC(C)C(C)=O)(C(=O)O)C(=O)O (configuration not stated) | > 200 | > 200 | 
C=CCC1C(=O)C(C(=O)OC)N2CCc3c([nH]c4ccccc34)C12 (configuration not stated) | > 282 | 138 | 
CCn1c2ccc(C(=O)CCCN3CCCCC3)cc2c2cc(C(=O)CCCN3CCCCC3)ccc21 | > 43.7 | 0.229 | 
O=c1[nH]nc(-c2cccc(Br)c2)[nH]1 | > 200 | > 200 | 
COc1ccc2c(c1)CCC1=C2CCC(=O)C1C (configuration not stated) (tested in a mixture with another compound) | > 200 | 7.94 | 
CCP(=O)(OC)C1=CCN(C(=O)OCC[Si](C)(C)C)CC1 (configuration not stated) | > 200 | > 200 | 
O=C1C[C@@]23CCC4(CC2=CCC[C@H]3O1)OCCO4 |  |  | inactive
S=c1ssc2ccccc12 | > 97.7 | 91.2 | 
CCCn1c2c(c3ccccc3c1=O)C(=O)c1ccccc1-2 | > 18.2 | > 18.2 | 
NNC(=O)c1ccc(OCc2nc3ccccc3[nH]2)cc1 | > 200 | 67.6 | 
CC(=O)NNc1nc(C)c(C(=O)/C=C/C=C/c2ccccc2)s1 | > 21.9 | > 21.9 | 
CS(=O)CCN=Cc1ccc(N=Nc2ccc(O)cc2)cc1 (configuration not stated) | > 200 | 1.78 | 
CCC(C)C1(C2CCCC2)NC(=O)NC1=O (configuration not stated) | > 200 | > 200 | 
CN(C)C(=O)c1nc(CNC(=O)CN)n(-c2ccc(Cl)cc2C(=O)c2ccccc2)n1 | > 200 | > 200 | 
